Laboratory results as given in PubChem BioAssay (NCI).
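Test compounds were applied to cells in 96-well plates for 48 hours at 5 doses. Abbreviation: GI50, concentration required for 50% inhibition of growth. TGI marks complete inhibition of growth.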

Assays:
Assay in all cases: inhibition of tumour cell growth, NCI panel, 48 h
IGROV1 ovarian = tested on: IGROV1 ovarian
K-562 leukemia = tested on: K-562 leukemia
NCI-H226 lung = tested on: NCI-H226 lung
NCI-H23 lung = tested on: NCI-H23 lung
SK-MEL-5 melanoma = tested on: SK-MEL-5 melanoma
SK-OV-3 ovarian = tested on: SK-OV-3 ovarian
SN12C renal = tested on: SN12C renal
UO-31 renal = tested on: UO-31 renal
HL-60(TB) leukemia = tested on: HL-60(TB) leukemia
SR leukemia = tested on: SR leukemia

N#Cc1c(N)nc(N2CCOCC2)c(C#N)c1-c1ccc(Cl)cc1Cl
GI50 (IGROV1 ovarian): 6.64 µM | TGI (IGROV1 ovarian): 23.6 µM | GI50 (K-562 leukemia): 23.9 µM | TGI (K-562 leukemia): 99.1 µM | GI50 (NCI-H226 lung): 26.9 µM | TGI (NCI-H226 lung): > 100 µM | GI50 (NCI-H23 lung): 19.7 µM | TGI (NCI-H23 lung): 48.4 µM | GI50 (SK-MEL-5 melanoma): 14.7 µM | TGI (SK-MEL-5 melanoma): 29.2 µM | GI50 (SK-OV-3 ovarian): 22.2 µM | TGI (SK-OV-3 ovarian): 91.1 µM | GI50 (SN12C renal): 16.1 µM | TGI (SN12C renal): 43.3 µM | GI50 (UO-31 renal): 3.26 µM | TGI (UO-31 renal): 15.8 µM

CCOC(=O)NC/C=C/CO
TGI (HL-60(TB) leukemia): > 100 µM | TGI (IGROV1 ovarian): > 100 µM | TGI (K-562 leukemia): > 100 µM | TGI (NCI-H226 lung): > 100 µM | TGI (SK-MEL-5 melanoma): > 100 µM | TGI (SK-OV-3 ovarian): > 100 µM | TGI (SN12C renal): > 100 µM | TGI (SR leukemia): > 100 µM | TGI (UO-31 renal): > 100 µM

COc1ccc(-c2ccc(/C=N/n3c(COc4ccc(Cl)c(C)c4)nn(CN4CCOCC4)c3=S)o2)c([N+](=O)[O-])c1
GI50 (HL-60(TB) leukemia): 24.1 µM | TGI (HL-60(TB) leukemia): 50.9 µM | GI50 (IGROV1 ovarian): 40.3 µM | TGI (IGROV1 ovarian): > 100 µM | GI50 (K-562 leukemia): 20.4 µM | TGI (K-562 leukemia): 51.7 µM | GI50 (NCI-H226 lung): > 100 µM | TGI (NCI-H226 lung): > 100 µM | GI50 (NCI-H23 lung): 20.2 µM | TGI (NCI-H23 lung): 51.6 µM | GI50 (SK-OV-3 ovarian): 34.4 µM | TGI (SK-OV-3 ovarian): > 100 µM | GI50 (SN12C renal): 21.3 µM | TGI (SN12C renal): 48.1 µM | GI50 (SR leukemia): 26.3 µM | TGI (SR leukemia): 72.1 µM | GI50 (UO-31 renal): 28.8 µM | TGI (UO-31 renal): > 100 µM

CCOC(=O)/C(=C/c1ccc[nH]1)P(=O)(OCC)OCC
TGI (HL-60(TB) leukemia): > 100 µM | TGI (K-562 leukemia): > 100 µM | TGI (NCI-H226 lung): > 100 µM | TGI (NCI-H23 lung): > 100 µM | TGI (SK-MEL-5 melanoma): > 100 µM | TGI (SK-OV-3 ovarian): > 100 µM | TGI (SN12C renal): > 100 µM | TGI (SR leukemia): > 100 µM | TGI (UO-31 renal): > 100 µM

COc1ccc(Cl)cc1Nc1nc(C(F)(F)F)ccc1C(=O)N/N=C/c1ccc(Cl)cc1
GI50 (HL-60(TB) leukemia): 7.58 µM | TGI (HL-60(TB) leukemia): 22 µM | GI50 (IGROV1 ovarian): 11 µM | TGI (IGROV1 ovarian): 79.1 µM | GI50 (K-562 leukemia): 3.85 µM | TGI (K-562 leukemia): 40.5 µM | GI50 (NCI-H226 lung): 4.18 µM | TGI (NCI-H226 lung): > 100 µM | GI50 (NCI-H23 lung): 9.57 µM | TGI (NCI-H23 lung): 42 µM | GI50 (SK-MEL-5 melanoma): 2.23 µM | TGI (SK-MEL-5 melanoma): 23.5 µM | GI50 (SK-OV-3 ovarian): 1.95 µM | TGI (SK-OV-3 ovarian): 22.9 µM | GI50 (SN12C renal): 8.67 µM | TGI (SN12C renal): > 100 µM | GI50 (UO-31 renal): 1.03 µM | TGI (UO-31 renal): > 100 µM

CC(C)c1nc(Cl)c(Cl)c(Cl)n1
TGI (HL-60(TB) leukemia): 5.4 µM | TGI (IGROV1 ovarian): 19.5 µM | TGI (K-562 leukemia): > 100 µM | TGI (NCI-H226 lung): 38.9 µM | TGI (NCI-H23 lung): 22.3 µM | TGI (SK-MEL-5 melanoma): 30.9 µM | TGI (SK-OV-3 ovarian): 37.9 µM | TGI (SN12C renal): 16.9 µM | TGI (UO-31 renal): 2.66 µM

CN(C)c1ccc(/C=C2\Cc3ccccc3C2=O)cc1Br
TGI (IGROV1 ovarian): > 100 µM | TGI (K-562 leukemia): > 100 µM | TGI (NCI-H23 lung): > 100 µM | TGI (SK-MEL-5 melanoma): 76.6 µM | TGI (SK-OV-3 ovarian): > 100 µM | TGI (SN12C renal): > 100 µM | TGI (UO-31 renal): > 100 µM

Cn1ncc2c(c1=O)Nc1ccccc1S2(=O)=O
TGI (IGROV1 ovarian): > 100 µM | TGI (K-562 leukemia): > 100 µM | TGI (NCI-H226 lung): > 100 µM | TGI (NCI-H23 lung): > 100 µM | TGI (SK-MEL-5 melanoma): > 100 µM | TGI (SK-OV-3 ovarian): > 100 µM | TGI (SN12C renal): > 100 µM | TGI (SR leukemia): > 100 µM | TGI (UO-31 renal): > 100 µM

Cc1nc(-c2cccnc2)sc1C(=O)/C=C/c1ccc(Cl)cc1Cl
TGI (HL-60(TB) leukemia): > 100 µM | TGI (IGROV1 ovarian): > 100 µM | TGI (K-562 leukemia): > 100 µM | TGI (NCI-H226 lung): > 100 µM | TGI (NCI-H23 lung): > 100 µM | TGI (SK-MEL-5 melanoma): > 100 µM | TGI (SK-OV-3 ovarian): > 100 µM | TGI (SN12C renal): > 100 µM | TGI (UO-31 renal): > 100 µM

Brc1ccc2c(c1)-c1ccccc1C1=NCCN12
GI50 (HL-60(TB) leukemia): 2.45 µM | TGI (HL-60(TB) leukemia): 5.65 µM | GI50 (IGROV1 ovarian): 1.61 µM | TGI (IGROV1 ovarian): 11.2 µM | GI50 (K-562 leukemia): 0.857 µM | TGI (K-562 leukemia): 5.1 µM | GI50 (NCI-H23 lung): 1.8 µM | TGI (NCI-H23 lung): 11.3 µM | GI50 (SK-MEL-5 melanoma): 1.52 µM | TGI (SK-MEL-5 melanoma): 3.24 µM | GI50 (SK-OV-3 ovarian): 2.88 µM | TGI (SK-OV-3 ovarian): 16.6 µM | GI50 (SN12C renal): 1.13 µM | TGI (SN12C renal): 13 µM | GI50 (SR leukemia): 0.753 µM | TGI (SR leukemia): 3.83 µM | GI50 (UO-31 renal): 0.585 µM | TGI (UO-31 renal): 3.81 µM

COc1cccc2c(Nc3ccc(C(=O)NCCN4CCNCC4)cc3)cc(-c3ccccc3)nc12
GI50 (IGROV1 ovarian): 32.1 µM | TGI (IGROV1 ovarian): > 100 µM | GI50 (K-562 leukemia): 27.7 µM | TGI (K-562 leukemia): 75.3 µM | GI50 (NCI-H226 lung): > 100 µM | TGI (NCI-H226 lung): > 100 µM | GI50 (NCI-H23 lung): > 100 µM | TGI (NCI-H23 lung): > 100 µM | GI50 (SK-MEL-5 melanoma): 31 µM | TGI (SK-MEL-5 melanoma): > 100 µM | GI50 (SK-OV-3 ovarian): > 100 µM | TGI (SK-OV-3 ovarian): > 100 µM | GI50 (SN12C renal): 50.7 µM | TGI (SN12C renal): > 100 µM | GI50 (UO-31 renal): 49.4 µM | TGI (UO-31 renal): > 100 µM

ClCc1ccc(Cn2cnc3nc(Cl)nc(Cl)c32)cc1
GI50 (IGROV1 ovarian): 1.37 µM | TGI (IGROV1 ovarian): 2.72 µM | GI50 (K-562 leukemia): 2.52 µM | TGI (K-562 leukemia): > 28.8 µM | GI50 (NCI-H226 lung): 0.946 µM | TGI (NCI-H226 lung): 2.92 µM | GI50 (NCI-H23 lung): 1.84 µM | TGI (NCI-H23 lung): 3.65 µM | GI50 (SK-MEL-5 melanoma): 0.801 µM | TGI (SK-MEL-5 melanoma): 3.75 µM | GI50 (SK-OV-3 ovarian): 2.36 µM | TGI (SK-OV-3 ovarian): 5.7 µM | GI50 (SN12C renal): 1.41 µM | TGI (SN12C renal): 3.15 µM | GI50 (SR leukemia): 4.16 µM | TGI (SR leukemia): > 100 µM | GI50 (UO-31 renal): 1.41 µM | TGI (UO-31 renal): 2.88 µM

CC(=O)Nc1ccc(C(=O)NN2C(=O)CSC2c2ccccc2)cc1 (stereo unspecified)
TGI (IGROV1 ovarian): > 100 µM | TGI (K-562 leukemia): > 100 µM | TGI (NCI-H226 lung): > 100 µM | TGI (NCI-H23 lung): > 100 µM | TGI (SK-MEL-5 melanoma): > 100 µM | TGI (SK-OV-3 ovarian): > 100 µM | TGI (SN12C renal): > 100 µM | TGI (UO-31 renal): > 100 µM

COC(=O)CCSC(=O)Nc1ccccc1Cl
TGI (HL-60(TB) leukemia): > 100 µM | TGI (K-562 leukemia): > 100 µM | TGI (NCI-H226 lung): > 100 µM | TGI (NCI-H23 lung): > 100 µM | TGI (SN12C renal): > 100 µM | TGI (SR leukemia): > 100 µM | TGI (UO-31 renal): > 100 µM

CC(C)C12CCC3(CCC4C(C)(C(=O)O)CCCC4(C)C3C1)C(CN)C2 (stereo unspecified)
TGI (IGROV1 ovarian): > 100 µM | TGI (NCI-H226 lung): > 100 µM | TGI (NCI-H23 lung): 72.1 µM | TGI (SK-MEL-5 melanoma): 86.2 µM | TGI (SK-OV-3 ovarian): > 100 µM | TGI (SN12C renal): 43.3 µM | TGI (SR leukemia): 60.1 µM | TGI (UO-31 renal): > 100 µM

Clc1ccc(N=CNc2ccc(-c3nc4ccccc4[nH]3)cc2)cc1
GI50 (HL-60(TB) leukemia): 0.631 µM | TGI (HL-60(TB) leukemia): > 100 µM | GI50 (IGROV1 ovarian): > 100 µM | TGI (IGROV1 ovarian): > 100 µM | GI50 (K-562 leukemia): 1.56 µM | TGI (K-562 leukemia): 17.2 µM | GI50 (NCI-H226 lung): 65.4 µM | TGI (NCI-H226 lung): > 100 µM | GI50 (SK-MEL-5 melanoma): 39.9 µM | TGI (SK-MEL-5 melanoma): > 100 µM | GI50 (SK-OV-3 ovarian): > 100 µM | TGI (SK-OV-3 ovarian): > 100 µM | GI50 (SN12C renal): > 100 µM | TGI (SN12C renal): > 100 µM | GI50 (SR leukemia): 39.6 µM | TGI (SR leukemia): > 100 µM | GI50 (UO-31 renal): 13.9 µM | TGI (UO-31 renal): > 100 µM

CCCCCCCCCCCCCCCC(=O)NCC(OCC)OCC
TGI (HL-60(TB) leukemia): > 100 µM | TGI (IGROV1 ovarian): > 100 µM | TGI (NCI-H226 lung): > 100 µM | TGI (NCI-H23 lung): > 100 µM | TGI (SK-MEL-5 melanoma): > 100 µM | TGI (SK-OV-3 ovarian): > 100 µM | TGI (SN12C renal): > 100 µM | TGI (UO-31 renal): > 100 µM

Cc1cc2c(SCc3ccccc3Cl)nc(N)nc2nc1C
TGI (HL-60(TB) leukemia): > 100 µM | TGI (IGROV1 ovarian): > 100 µM | TGI (NCI-H23 lung): > 100 µM | TGI (SK-MEL-5 melanoma): > 100 µM | TGI (SK-OV-3 ovarian): > 100 µM | TGI (SN12C renal): > 100 µM | TGI (SR leukemia): > 100 µM | TGI (UO-31 renal): > 100 µM

Cc1ccc(S(=O)(=O)NCc2cccc([N+](=O)[O-])c2)cc1
TGI (HL-60(TB) leukemia): 90.3 µM | TGI (IGROV1 ovarian): > 100 µM | TGI (NCI-H226 lung): > 100 µM | TGI (NCI-H23 lung): > 100 µM | TGI (SK-MEL-5 melanoma): > 100 µM | TGI (SK-OV-3 ovarian): > 100 µM | TGI (SN12C renal): > 100 µM | TGI (SR leukemia): > 100 µM
